One series concerns MCF-7 (breast). In words: MTT cytotoxicity test, MCF-7. It is filed as cell-based. The following applies: Homo sapiens, MCF7, incubation 72 hours, read-out: IC50 values (µM) for individual cell lines MCF-7 (breast). The method, then: (§1) Cells were seeded in a 96-well plate at 5-10 x 10^3 cells per well. After 24 hours, the culture medium was decanted and 100 µL of fresh medium was added to the control wells, while the medium with test compounds dissolved in DMSO was added to the test wells. The plates were wrapped in foil and placed in an incubator. After 72 hours of incubation, the medium was decanted and 100 µL of a solution of yellow soluble 3-(4,5-dimethyl-2-thiazolyl)-2,5-diphenyl-2H-tetrazolium bromide (MTT) at a concentration of 0.5-1 mg/mL was added. After 4 hours of incubation, the MTT solution was decanted and 50 µL/well of DMSO was added. After 3 hours, the optical density of the dissolved formazan was analyzed colorimetrically in a BioTek plate reader. […] Since living cells reduce MTT to formazan, the optical density (OD) is highest in the control (C) wells which accounted for 100% of cell viability. Viablity in wells incubated with compound (COMP) was calculated using the formula: X = 100% × OD COMP/OD C [formula] The results reported are the mean value of triplicate cytotoxicity analysis. Cell viability studies using the MTT assay on cell lines of numerous cancers, including breast cancer, colorectal cancer, lung cancer, skin cancer, and bone sarcoma have shown that Glu-MTX is cytotoxic in vitro. […]
(Tetrazolium dyes change colour on reduction, which living cells bring about.)

In a further series the test system is DLD-1 (large intestine). In words: MTT cytotoxicity test, DLD-1. It is filed as cell-based. The settings on record: Homo sapiens, incubation 72 hours, read-out: IC50 values (µM) for individual cell lines DLD-1 (large intestine). The method, then:
as §1

The subject of a further series is MG-63 (bone sarcoma). In words: MTT cytotoxicity test, MG-63. The settings on record: Homo sapiens, incubation 72 hours, read-out: IC50 values (µM) for individual cell lines MG-63 (bone sarcoma). The class given is cell-based. On the procedure:
as §1

Series [1] has as its system WI38 (healthy fibroblasts). In words: MTT cytotoxicity test, WI38. It is filed as cell-based. The settings on record: Homo sapiens, WI-38, incubation 72 hours, read-out: IC50 values (µM) for individual cell lines WI38 (healthy fibroblasts). On the procedure:
as §1

Series [2] relates to MCF-7 breast cancer tumor cells. In words: MS analysis of intracellular accumulation, MCF-7. It is filed as cell-based. The settings on record: human, 2 h, 10 µM. On the procedure:
(§2) Cells were seeded in a 6-well plate at 2.5 x 10^5 cells/well and 1 mL/well. When the cells reached 80% confluence, the culture medium was decanted and 1 mL per well of fresh medium to the control wells or 1 mL per well of the test medium with methotrexate at a concentration of 10 µM or a derivative of methotrexate at a concentration of 10 µM, respectively, was added. The plate was wrapped in foil and incubated for 2 hours in an incubator. After this time, the medium was decanted, and each well was washed with 2x1 mL of PBS at room temperature. Then, the plate was placed on ice and 500 µL of a 3:1 mixture of methanol and ultrapure water at -20 °C were applied to each well. The mixture was pipetted several times in each well and collected in a test tube. Then, the procedure was repeated and the prepared samples (each with a volume of 1 mL) were placed in a lowtemperature freezer at -80 °C. The next day, the samples were concentrated in a vacuum concentrator until the samples were completely dry. Prior to analysis, the solvent for MS analysis (Xevo G2 Q-TOF MS) was added to the sample. In figure 7 it can be seen that in case of MTX the surface area of MCF7 tumor cells grown with MTX is about 308 units, and when using a compound according to the invention (identified as 77_1 in Figure 7) it is 525, i.e. about 1.7 times less than in the case of a conjugate. […]

Series [3] deals with A427 lung cancer tumor cells. In words: MS analysis of intracellular accumulation, A427. The class given is cell-based. The settings on record: 10 µM, 2 hours incubation. The method, then: as §2
The conditions of series [4]: male, BALB/ccmdb, mouse, in vivo, iv. On the procedure: The pharmacokinetic profile of the glucose-methotrexate derivative according to the invention (GMTX; chemical formula: C42H58N16O15) was examined in relation to the profile of the classical form of this drug (MTX) after a single intravenous administration into the tail vein. The solutions administered to the animals were prepared on the day of administration.
GMTX was administered to mice intravenously via the tail vein, in a single dose, in the form of solutions (with concentrations ensuring that the animals are dosed appropriately) prepared in 5% DMSO and saline in the 1:20 ratio, in a volume not exceeding 0.2 cm^3/mouse. […]
Mice were administered intravenously (i.v.) GMTX and MTX and blood was collected (to obtain plasma) at 4 time points after injection (1 h, 2 h, 4 h and 8 h), as well as in the so-called time 0 (blood sampling from animals that received neither MTX nor GMTX). […] Another 16 males were administered GMTX at a dose of 400 mg/kg body weight, constituting ½ the MTD of this compound (determined in our study with the code T425/001/2020), and the remaining 8 subjects were not administered either classic MTX nor its glycoconjugate (GMTX). […]
The results of MTX and GMTX concentrations in the plasma of mice were statistically analyzed using the Statistica 13 computer program. The results were expressed as the mean concentration (± standard deviation - SD) at individual time points. […]

The conditions of series [5]: administered intravenously, cited from earlier work.
For series [6] the following is noted: cited from earlier work.

Like-named read-outs stand apart in the source and are kept apart here.

What is called IC50 is the point on the concentration scale where inhibition reaches its midpoint.

Turning to `CN(Cc1cnc2nc(N)nc(N)c2n1)c1ccc(C(=O)N[C@@H](CCC(=O)O)C(=O)O)cc1` [MTX, Methotrexate], the half-inhibitory concentration (IC50) in the series with MCF-7 (breast) amounted to 9.61 ± 0.12 µM; in the series with DLD-1 (large intestine), 6.85 ± 0.21 µM; in the series on MG-63 (bone sarcoma), 61 ± 0.76 µM; in [1], 16.9 ± 1.94 µM. In addition, the “surface area (MS analysis)” value in series [2] is “about 308 units”. Moreover, the “surface area of MTX, times less than in the case of a conjugate” value in [2] is recorded as “about 1.7 times”. Also, in [3], the “surface area of MTX, times smaller compared to that of the conjugate” value stood at 1.7 times. Besides, in series [4], the “eliminated from the systemic circulation (time)” value is at most 4 h. Also, the MTD in [5] (mice of the BALB/c strain, Moura et al. 2011) is on record as 94 mg/kg b.w. Further, the LD50 in series [5] (mice) is listed as 65 mg/kg b.w. For the same molecule, the bioavailability is recorded as 10-20% in series [6] (in high doses) and “almost complete” in [6] (in low doses). Also, the plasma half-life in [6] (in vivo) is 5 to 8 h.

These data come from patent EP4352072B1, “SYNTHESIS OF A NOVEL GLUCOSE-CONJUGATED METHOTREXATE AND ITS APPLICATION FOR THE TREATMENT AND PREVENTION OF NEOPLASMS” (Uniwersytet Medyczny Im. Piastów Slaskich We Wroclawiu, priority 2021, dated 2022).
